Results published in patent US7994185B2, “Benzene sulfonamide thiazole and oxazole compounds” (Glaxo Smith Kline LLC, priority 2008, dated 2011).
Read-outs that look alike come from different tables or passages of the source.

Tests used:
[1] = system: Human colon tumor cells (Colo205); test: Cell growth inhibition assay (CellTiter-Glo), Colo205; type: cell-based
Summary of the method: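 Read-out was CellTiter-Glo luminescence (total ATP as a cell-number surrogate), expressed as % inhibition against DMSO vehicle wells. Before that, cells grown in RPMI/10% FBS were treated for 3 days at 37 °C with ten 1:3-spaced compound concentrations, final DMSO 0.2%.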

[2] = molecular target: T1, BRAFV600E full-length (amino acids 2-766) (Homo sapiens, UniProt P15056, V600E); test: B-Raf Accelerated MEK ATPase assay (BRAMA); type: biochemical; details: categorized
T1 construct: His6-tagged BRAFV600E full-length (amino acids 2-766); His6; made in house; host or cells: baculovirus expression system (insect cells)
Summary of the method: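 Coupled-enzyme readout: ADP generated by MEK-mediated ATP hydrolysis, uncoupled from ERK phosphorylation, is linked to NADH oxidation through pyruvate kinase and lactate dehydrogenase.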

[3] = system: Human melanoma cancer cells (SK-MEL-28); test: Cell growth inhibition assay (CellTiter-Glo), SK-MEL-28; type: cell-based
[4] = COLO 205, Table 2b, later runs, average for the one or more runs, categorized, read-out: IC50 for Colo205
[5] = B-Raf pIC50, Table 1b, later runs, average pIC50 for the one or more runs
[6] = SK-MEL-28, Table 3b, later runs, average for the one or more runs, categorized, read-out: IC50 for SK-MEL-28
[7] = COLO 205, 72 h, Table 2a, 3 days incubation, read-out: Activity in Colo205 Tumor Cells
[8] = B-Raf Activity, Table 1a, highest pIC50 for the one or more runs
[9] = Table 1b, later runs, average pIC50 for the one or more runs, read-out: B-Raf pIC50 (converted)
[10] = SK-MEL-28, 72 h, Table 3a, 3 days incubation, read-out: Activity in SK-MEL-28 Tumor Cells

T1 sequence (P15056 2-766 V600E): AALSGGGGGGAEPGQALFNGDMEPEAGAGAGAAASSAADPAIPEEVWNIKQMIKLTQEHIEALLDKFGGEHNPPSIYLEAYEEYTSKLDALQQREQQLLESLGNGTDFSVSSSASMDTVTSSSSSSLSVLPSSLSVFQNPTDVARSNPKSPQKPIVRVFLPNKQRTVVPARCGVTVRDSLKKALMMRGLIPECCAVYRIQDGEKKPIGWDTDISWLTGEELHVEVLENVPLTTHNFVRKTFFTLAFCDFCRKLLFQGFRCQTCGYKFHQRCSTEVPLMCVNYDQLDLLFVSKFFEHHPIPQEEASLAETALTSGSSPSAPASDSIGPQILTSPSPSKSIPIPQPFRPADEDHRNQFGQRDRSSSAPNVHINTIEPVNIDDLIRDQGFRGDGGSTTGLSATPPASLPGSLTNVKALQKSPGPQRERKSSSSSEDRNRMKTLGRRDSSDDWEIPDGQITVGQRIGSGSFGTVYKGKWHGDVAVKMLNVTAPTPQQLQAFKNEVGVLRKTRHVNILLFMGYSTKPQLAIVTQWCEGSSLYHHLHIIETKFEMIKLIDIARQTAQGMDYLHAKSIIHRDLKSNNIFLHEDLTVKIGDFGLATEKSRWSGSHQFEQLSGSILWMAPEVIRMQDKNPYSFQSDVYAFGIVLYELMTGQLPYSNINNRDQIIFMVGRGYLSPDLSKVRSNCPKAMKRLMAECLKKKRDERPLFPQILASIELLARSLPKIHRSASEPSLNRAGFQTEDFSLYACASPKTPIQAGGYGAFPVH

| Compound | IC50 [1, 4] | IC50 [2, 5] | IC50 [3, 6] | IC50 [1, 7] | IC50 [2, 8] | IC50 [2, 9] | IC50 [3, 10] |
| --- | --- | --- | --- | --- | --- | --- | --- |
| O=S(=O)(Nc1cccc(-c2nc(N3CCOCC3)sc2-c2ccncn2)c1Cl)c1cc(F)ccc1F [Example 240, N-{2-chloro-3-[2-(4-morpholinyl)-5-(4-pyrimidinyl)-1,3-thiazol-4-yl]phenyl}-2,5-difluorobenzenesulfonamide] | < 100 nM | ≤ 3.16 nM | < 100 nM |  |  |  |  |
| CC(C)(C)c1nc(-c2cccc(NS(=O)(=O)c3cc(F)ccc3F)c2F)c(-c2ccnc(NCC(F)(F)F)n2)s1 [Example 94, N-[3-(2-(1,1-Dimethylethyl)-5-{2-[(2,2,2-trifluoroethyl)amino]-4-pyrimidinyl}-1,3-thiazol-4-yl)-2-fluorophenyl]-2,5-difluorobenzenesulfonamide] | 100 to 1000 nM |  | 100 to 1000 nM | 100 to 1000 nM | < 100 nM | 3.16 to 31.6 nM | 100 to 1000 nM |
| CC(C)CNc1nccc(-c2sc(C(C)C)nc2-c2cccc(NS(=O)(=O)c3ccco3)c2F)n1 [Example 154] | 100 to 1000 nM | ≤ 3.16 nM | 100 to 1000 nM | 100 to 1000 nM | < 100 nM |  | 100 to 1000 nM |
| CC(C)c1nc(-c2ccc(F)c(NS(=O)(=O)c3cc(F)ccc3F)c2)c(-c2ccnc(NC3CCN(CCS(C)(=O)=O)CC3)n2)s1 [Example 126] | 100 to 1000 nM | 31.6 to 1000 nM | 100 to 1000 nM | 100 to 1000 nM | < 100 nM |  | 100 to 1000 nM |
| CC(C)(C)c1nc(-c2cccc(NS(=O)(=O)c3cc(F)ccc3F)c2F)c(-c2ccnc(NCCNC(=O)CO)n2)s1 [Example 98, N-{2-([4-[4-(3-{[(2,5-Difluorophenyl)sulfonyl]amino}-2-fluorophenyl)-2-(1,1-dimethylethyl)-1,3-thiazol-5-yl]-2-pyrimidinyl}amino)ethyl]-2-hydroxyacetamide] | < 100 nM | ≤ 3.16 nM | < 100 nM | < 100 nM | < 100 nM |  | < 100 nM |
| CC(C)c1nc(-c2ccc(F)c(NS(=O)(=O)c3c(F)cccc3F)c2)c(-c2ccnc(NCCN3CCOCC3)n2)s1 [Example 165] | 100 to 1000 nM | 31.6 to 1000 nM | 100 to 1000 nM | 100 to 1000 nM |  |  | 100 to 1000 nM |
| CC(C)c1nc(-c2cccc(NS(=O)(=O)c3cc(F)ccc3F)c2F)c(-c2ccnc(NCCCNC(=O)OC(C)(C)C)n2)s1 [Example 193] | 100 to 1000 nM |  | 100 to 1000 nM | 100 to 1000 nM | < 100 nM | 3.16 to 31.6 nM | 100 to 1000 nM |
| CC(=O)NCCNc1nccc(-c2sc(C(C)(C)C)nc2-c2cccc(NS(=O)(=O)c3cc(F)ccc3F)c2F)n1 [Example 197] | < 100 nM | ≤ 3.16 nM | < 100 nM | < 100 nM | < 100 nM |  | < 100 nM |
| CC(C)c1nc(-c2ccc(F)c(NS(=O)(=O)c3cc(F)ccc3F)c2)c(-c2ccnc(N[C@H]3CCCN(C(=O)OC(C)(C)C)C3)n2)s1 [Example 133] | 1000 to 10000 nM | 31.6 to 1000 nM | 1000 to 10000 nM | > 1000 nM | 100 to 1000 nM |  | > 1000 nM |
| Nc1nccc(-c2sc(N3CCOCC3)nc2-c2cccc(NS(=O)(=O)c3c(F)cccc3F)c2Cl)n1 [Example 21, N-{3-[5-(2-Amino-4-pyrimidinyl)-2-(4-morpholinyl)-1,3-thiazol-4-yl]-2-chlorophenyl}-2,6-difluorobenzenesulfonamide] | 100 to 1000 nM | ≤ 3.16 nM | 100 to 1000 nM | 100 to 1000 nM | < 100 nM |  | 100 to 1000 nM |
| Cc1nccc(-c2sc(C(C)(C)C)nc2-c2cccc(NS(=O)(=O)c3cc(F)ccc3F)c2Cl)n1 [Example 229, N-{2-chloro-3-[2-(1,1-dimethylethyl)-5-(2-methyl-4-pyrimidinyl)-1,3-thiazol-4-yl]phenyl}-2,5-difluorobenzenesulfonamide] | < 100 nM |  | < 100 nM |  |  | 3.16 to 31.6 nM |  |
| Cc1nccc(-c2sc(C(C)(C)C)nc2-c2cccc(NS(=O)(=O)c3cccc(F)c3)c2F)n1 [Example 222, N-{3-[2-(1,1-dimethylethyl)-5-(2-methyl-4-pyrimidinyl)-1,3-thiazol-4-yl]-2-fluorophenyl}-3-fluorobenzenesulfonamide] | < 100 nM |  | < 100 nM |  |  | 3.16 to 31.6 nM |  |
| CC(C)c1nc(-c2cccc(NS(=O)(=O)c3cc(F)ccc3F)c2F)c(-c2ccnc(NCCNC(=O)CO)n2)s1 [Example 192] | 100 to 1000 nM | ≤ 3.16 nM | < 100 nM | 100 to 1000 nM | < 100 nM |  | 100 to 1000 nM |
| Cc1csc(S(=O)(=O)Nc2cccc(-c3nc(C(C)(C)C)sc3-c3ccnc(N)n3)c2F)c1 [Example 235, N-{3-[5-(2-amino-4-pyrimidinyl)-2-(1,1-dimethylethyl)-1,3-thiazol-4-yl]-2-fluorophenyl}-4-methyl-2-thiophenesulfonamide] | < 100 nM |  | < 100 nM |  |  | 3.16 to 31.6 nM |  |
| Cc1cccc(S(=O)(=O)Nc2cccc(-c3nc(C(C)(C)C)sc3-c3ccnc(N)n3)c2F)c1 [Example 147] | 100 to 1000 nM | 31.6 to 1000 nM | 100 to 1000 nM | 100 to 1000 nM | < 100 nM |  | 100 to 1000 nM |
| CS(=O)(=O)N1CCC(Nc2nccc(-c3sc(N4CCOCC4)nc3-c3cccc(NS(=O)(=O)c4c(F)cccc4F)c3F)n2)CC1 [Example 79, 2,6-Difluoro-N-{2-fluoro-3-[5-(2-{[1-(methylsulfonyl)-4-piperidinyl]amino}-4-pyrimidinyl)-2-(4-morpholinyl)-1,3-thiazol-4-yl]phenyl}benzenesulfonamide] | < 100 nM | ≤ 3.16 nM | < 100 nM | < 100 nM | < 100 nM |  | < 100 nM |
| CC(C)(C)c1nc(-c2cccc(NS(=O)(=O)c3ccccn3)c2F)c(-c2ccnc(N)n2)s1 [Example 278, N-{3-[5-(2-amino-4-pyrimidinyl)-2-(1,1-dimethylethyl)-1,3-thiazol-4-yl]-2-fluorophenyl}-2-pyridinesulfonamide] | 100 to 1000 nM |  | 100 to 1000 nM |  |  | 3.16 to 31.6 nM |  |
| CC(C)CNc1nccc(-c2sc(C(C)C)nc2-c2cccc(NS(=O)(=O)c3cccnc3)c2)n1 [Example 155] | 100 to 1000 nM | ≤ 3.16 nM | 100 to 1000 nM | 100 to 1000 nM | < 100 nM |  | 100 to 1000 nM |
| CC(C)c1nc(-c2ccc(F)c(NS(=O)(=O)c3c(F)cccc3F)c2)c(-c2ccnc(NCCF)n2)s1 [Example 178] | 100 to 1000 nM | 31.6 to 1000 nM | 100 to 1000 nM | 100 to 1000 nM | < 100 nM |  | 100 to 1000 nM |
| CS(=O)(=O)N1CCC(c2nc(-c3cccc(NS(=O)(=O)c4cc(F)ccc4F)c3F)c(-c3ccnc(N)n3)s2)CC1 [Example 101, N-(3-{5-(2-Amino-4-pyrimidinyl)-2-[1-(methylsulfonyl)-4-piperidinyl]-1,3-thiazol-4-yl}-2-fluorophenyl)-2,5-difluorobenzenesulfonamide] | < 100 nM | ≤ 3.16 nM | < 100 nM | < 100 nM | < 100 nM |  | < 100 nM |
| CC(C)(C)c1nc(-c2cccc(NS(=O)(=O)c3cc(F)ccc3F)c2F)c(-c2ccnc(NC3CCN(S(C)(=O)=O)CC3)n2)s1 [Example 130] | < 100 nM | ≤ 3.16 nM | < 100 nM | < 100 nM | < 100 nM |  | < 100 nM |
| CC(C)(C)c1nc(-c2cccc(NS(=O)(=O)c3cc(F)ccc3F)c2F)c(-c2ccnc(NC3CCOCC3)n2)s1 [Example 138] | < 100 nM | ≤ 3.16 nM | < 100 nM | < 100 nM | < 100 nM |  | > 1000 nM |
| CC(C)c1nc(-c2ccc(F)c(NS(=O)(=O)c3c(F)cccc3F)c2)c(-c2ccnc(NCCCN3CCOCC3)n2)s1 [Example 7, 2,6-Difluoro-N-{2-fluoro-5-[2-(1-methylethyl)-5-(2-{[3-(4-morpholinyl)propyl]amino}-4-pyrimidinyl)-1,3-thiazol-4-yl]phenyl}benzenesulfonamide] | 1000 to 10000 nM | 31.6 to 1000 nM | 1000 to 10000 nM | > 1000 nM | 100 to 1000 nM |  | > 1000 nM |
| CC(C)c1nc(-c2ccc(F)c(NS(=O)(=O)c3ccccc3F)c2)c(-c2ccnc(N[C@H]3CC[C@H](NS(C)(=O)=O)CC3)n2)s1 [Example 140] | < 100 nM |  | < 100 nM | < 100 nM | < 100 nM | 3.16 to 31.6 nM | < 100 nM |
| CC(C)(C)c1nc(-c2cccc(NS(=O)(=O)c3cc(F)ccc3F)c2F)c(-c2ccnc(CCC(=O)N3CCOCC3)n2)s1 [Example 254, N-[3-(2-(1,1-dimethylethyl)-5-{2-[3-(4-morpholinyl)-3-oxopropyl]-4-pyrimidinyl}-1,3-thiazol-4-yl)-2-fluorophenyl]-2,5-difluorobenzenesulfonamide] | 100 to 1000 nM |  | < 100 nM |  |  | 3.16 to 31.6 nM |  |
| CC(=O)NCCNc1nccc(-c2sc(C(C)C)nc2-c2ccc(F)c(NS(=O)(=O)c3c(F)cccc3F)c2)n1 [Example 183] | 1000 to 10000 nM | 31.6 to 1000 nM | 1000 to 10000 nM | > 1000 nM | < 100 nM |  | > 1000 nM |
